Source: BigSolDB 2.1

CN(C)Cc1c[nH]c2ccccc12
solubility (mole fraction)
Conditions	273.15 K	278.15 K	283.15 K	288.15 K	293.15 K	298.15 K	303.15 K	308.15 K	313.15 K
in 1,4-dioxane	–	–	–	0.0465	0.0511	0.0562	0.0623	0.0684	0.0746
in acetone	0.0231	0.026	0.0289	0.0327	0.0364	0.0402	0.0463	0.0523	0.0584
in acetonitrile	0.00447	0.00517	0.00621	0.00736	0.00858	0.00998	0.0116	0.0133	0.0151
in ethanol	0.0207	0.023	0.0254	0.0283	0.0317	0.0355	0.0399	0.0449	0.0508
in ethyl acetate	0.0165	0.0193	0.0219	0.0253	0.029	0.0327	0.0377	0.0428	0.0479
in isopropanol	0.013	0.0153	0.0178	0.0207	0.0235	0.0268	0.0305	0.0341	0.0377
in methanol	0.0274	0.0293	0.0315	0.0341	0.0371	0.0417	0.0474	0.0537	0.0615
in n-butanol	0.0305	0.0337	0.0369	0.0416	0.0464	0.0512	0.0565	0.0617	0.067
in n-octanol	0.0111	0.0132	0.0158	0.0187	0.0218	0.025	0.0284	0.0319	0.036
in n-propanol	0.0284	0.0315	0.0346	0.0381	0.0415	0.046	0.0515	0.0581	0.0629
in toluene	0.00345	0.00408	0.00456	0.00537	0.00647	0.00765	0.00905	0.0107	0.0126
